Reference: patent US20070254906A1 (DarPharma, Inc., priority 2004, published 2007)
Entries after “also recorded” stand apart in the source; their conditions may differ. Where a name gives a salt, the structure may show the parent alone. Read-outs that look alike come from different tables or passages of the source. Blank lines part the entries; values can stand above or below the compound they belong to.

Columns and labels:
adenylate cyclase [1] = assay: Stimulation of adenylate cyclase by dihydrexidine; conditions: for efficacy in stimulating adenylate cyclase: compared with dopamine, rat, monkey, and human brain tissue, hydrochloride
[2] = test system: alveolar fluid resorption; conditions: isolated, perfused rat lungs; cited from earlier work
D1 receptor = D1 receptor (Homo sapiens, UniProt P21728); assay: Alveolar fluid resorption in transgenic mice overexpressing the D1 receptor; conditions: mice with D1 receptor overexpressed by electroporation
Chain of D1 receptor (P21728 whole entry): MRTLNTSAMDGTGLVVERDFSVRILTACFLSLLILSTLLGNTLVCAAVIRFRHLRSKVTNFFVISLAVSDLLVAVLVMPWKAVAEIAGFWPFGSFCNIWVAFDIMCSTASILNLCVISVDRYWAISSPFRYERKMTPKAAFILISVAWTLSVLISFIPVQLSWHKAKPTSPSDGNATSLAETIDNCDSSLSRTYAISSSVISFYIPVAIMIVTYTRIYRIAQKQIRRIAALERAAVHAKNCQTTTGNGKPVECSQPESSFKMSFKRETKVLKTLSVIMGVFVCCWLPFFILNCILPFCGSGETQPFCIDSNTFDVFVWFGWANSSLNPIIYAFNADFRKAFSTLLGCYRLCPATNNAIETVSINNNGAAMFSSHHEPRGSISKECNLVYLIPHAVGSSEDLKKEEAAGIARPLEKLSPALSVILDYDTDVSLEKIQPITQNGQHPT

lung liquid clearance = conditions: cited from earlier work
[3] = test system: dopamine release and reuptake; assay: Dopamine release and reuptake
injured rat lung = assay: Fluid resorption in rat model of lung injury; assay type: in vivo; conditions: intravenous administration, listed as DHX, hydrochloride
[4] = molecular target: 40 binding sites (other than the D1 site); assay: Screen at about 40 receptor binding sites; conditions: inactive at all except D2 and alpha2
[5] = molecular target: 40 binding sites (other than the D1 site); conditions: inactive; Mottola et al. (1992); read-out: IC50 at about 40 different receptor binding sites; cited from earlier work
[6] = molecular target: alpha2 adrenergic receptors; assay: Binding at alpha2 adrenergic receptors (screen); conditions: Method Example 2 text
[7] = test system: rabbit model of lung injury; assay: Fluid resorption in rabbit model of lung injury; assay type: in vivo; conditions: intravenous route
[8] = molecular target: alpha2 adrenergic receptors; conditions: Mottola et al. (1992); cited from earlier work
dopamine D1 receptor = conditions: read-out: IC50, binding to dopamine D1 receptor; Mottola et al. (1992); cited from earlier work
[9] = Half-life, duration of action and oral absorption; assay type: in vivo; conditions: for half-life: intravenous, read-out: half-life when given intravenously
adenylate cyclase [10] = assay: Activation of adenylate cyclase in rat brain striatum; assay type: biochemical; conditions: compared with dopamine
D1 receptors [11] = molecular target: D1 receptors (Rattus norvegicus, UniProt P18901); assay: Binding affinity at rat brain striatal D1 receptors (3H-SCH 23390); conditions: read-out: D1 Affinity (K0.5) ± SEM; rat brain striatal homogenates, 3H-SCH 23390
Chain of D1 receptors (Rattus norvegicus, UniProt P18901) (P18901 whole entry): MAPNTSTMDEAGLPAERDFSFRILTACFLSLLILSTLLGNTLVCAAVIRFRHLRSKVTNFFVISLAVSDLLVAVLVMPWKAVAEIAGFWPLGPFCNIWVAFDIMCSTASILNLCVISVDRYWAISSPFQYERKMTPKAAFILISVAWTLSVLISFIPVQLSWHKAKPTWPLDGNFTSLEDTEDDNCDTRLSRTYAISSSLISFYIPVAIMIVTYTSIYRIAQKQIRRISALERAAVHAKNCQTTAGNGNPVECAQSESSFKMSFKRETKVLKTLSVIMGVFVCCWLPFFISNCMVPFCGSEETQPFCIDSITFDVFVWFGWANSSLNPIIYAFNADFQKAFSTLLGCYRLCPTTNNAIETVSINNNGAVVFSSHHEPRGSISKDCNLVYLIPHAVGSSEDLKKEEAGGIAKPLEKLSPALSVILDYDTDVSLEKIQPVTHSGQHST

D1 receptors [12] = assay: as above; conditions: for D1:D2 Selectivity: rat brain striatal homogenates
D2 receptors [13] = molecular target: T1, D2 receptors (Rattus norvegicus, UniProt P61169); assay type: binding; conditions: rat brain striatal homogenates, 3H-spiperone; read-out: D2 Affinity (K0.5) ± SEM
T1 construct: other: rat brain striatal homogenates, 3H-spiperone
T1 sequence (P61169 whole entry): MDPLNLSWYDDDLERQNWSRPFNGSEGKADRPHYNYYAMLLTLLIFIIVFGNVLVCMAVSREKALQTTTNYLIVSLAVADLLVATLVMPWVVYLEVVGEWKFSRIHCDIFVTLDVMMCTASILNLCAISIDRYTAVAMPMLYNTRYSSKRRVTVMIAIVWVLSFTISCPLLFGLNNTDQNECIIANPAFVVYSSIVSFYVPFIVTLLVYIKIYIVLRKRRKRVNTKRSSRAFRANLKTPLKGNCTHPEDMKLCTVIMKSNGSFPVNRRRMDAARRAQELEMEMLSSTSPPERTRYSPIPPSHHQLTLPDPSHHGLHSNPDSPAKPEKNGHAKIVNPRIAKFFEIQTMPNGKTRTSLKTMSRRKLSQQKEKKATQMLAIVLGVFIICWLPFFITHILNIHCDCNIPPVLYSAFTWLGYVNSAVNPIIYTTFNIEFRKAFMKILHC

[14] = background statement; cited from earlier work
D2 receptors [15] = assay type: binding, rat

SMILES: CN1CCc2cc(Cl)c(O)cc2C(c2ccccc2)C1 (centres unmarked) [SCH 23390]
- blockade of dihydrexidine stimulation of adenylate cyclase (adenylate cyclase [1]; D1 antagonist): blocked
- blockade of the dopamine effect on alveolar fluid resorption [2]: blocked
- blockade of the increase in alveolar fluid resorption (D1 receptor): blocked

SMILES: Oc1ccc2c(c1O)Cc1cccc3c1C2CNC3 (centres unmarked) (as salt: hydrobromid) [dinapsoline, 8,9-Dihydroxy-2,3,7,11b-tetrahydro-1H-napth[1,2,3-de]isoquinoline]
- melting point: 258 °C (dec.)

- melting point: 259 to 264 °C (dec.)
SMILES: CCCN1Cc2cccc3c2C(C1)c1ccc(O)c(O)c1O3 (centres unmarked) [Compound 16c, N-propyl-8,9-dihydroxy-1,2,3,11b-tetrahydrochromeno[4,3,2-de]isoquinoline]

SMILES: NCCc1ccc(O)c(O)c1 [dopamine]
- increase in alveolar fluid resorption [2]: 98%
- increase in lung liquid clearance (lung liquid clearance; dopamine instilled at 10-5): 131%
- increase in lung liquid clearance (lung liquid clearance; dopamine instilled at 10-6): 47%
- increase in lung liquid clearance (lung liquid clearance; dopamine instilled at 10-8): 27%

SMILES: Oc1cc2c(cc1O)[C@H]1c3ccccc3CN[C@@H]1CC2 (racemic) [dihydrexidine, Trans-10,11-dihydroxy-5,6,6a,7,8,12b-hexahydrobenzo[α]phenanthridine hydrochloride]
- releasing dopamine or blocking its reuptake [3]: inactive
- efficacy in stimulating adenylate cyclase (adenylate cyclase [1]): full efficacy
- efficacy in stimulating adenylate cyclase (adenylate cyclase [1]; listed as DHX): as efficacious as dopamine
- fluid absorption / resorption from injured lung (injured rat lung): shown efficacy; also recorded: shown to induce fluid resorption
- IC50 [4]: > 10000 nM
- IC50 [5]: > 10000 nM
- IC50 [6]: ~230 nM
- fluid resorption in lung injury model [7]: shown to induce fluid resorption
- IC50 [8]: 230 nM
- IC50 (dopamine D1 receptor): ~10 nM
- half-life ([9]; in vivo): ~30 min
- oral absorption / oral bioavailability ([9]; oral administration, listed as DHX, hydrochloride): relatively poor; also recorded: poorly absorbed
- half-life ([9]; serum): < 10 min
- functional half-life when given subcutaneously ([9]; subcutaneous): about 3 hr

SMILES: Oc1ccc2c(c1O)Cc1cccc3c1C2CNC3 (centres unmarked) [dinapsoline, 8,9-Dihydroxy-2,3,7,11b-tetrahydro-1H-napth[1,2,3-de]isoquinoline]
- efficacy in activating adenylate cyclase in rat brain striatum (adenylate cyclase [10]): as effective as dopamine

SMILES: Cl.Oc1cc2c(cc1O)[C@@H]1c3cc(Cc4ccccc4)ccc3CN[C@H]1CC2 (relative stereo) [Compound 6e, Trans-2-benzyl-10,11-dihydroxy-5,6,6a,7,8,12b-hexahydrobenzo[α]phenanthridine hydrochloride]
- Ki (D1 receptors [11]): 290 nM
- D1:D2 Selectivity (D1 receptors [12]): 0.6
- Ki (D2 receptors [13]): 185 nM

SMILES: Oc1ccc(C2CNCCc3c2cc(O)c(O)c3Cl)cc1 (centres unmarked) [fenoldopam]
- half-life [14]: about 15 minutes

SMILES: Cc1ccc2c(c1)CN[C@H]1CCc3cc(O)c(O)cc3[C@H]21 (relative stereo) (as salt: hydrochloride) [Compound 6c, Trans-3-methyl-10,11-dihydroxy-5,6,6a,7,8, 12b-hexahydrobenzo[α]phenanthridine hydrochloride]
- melting point: 190 °C (dec.)

- melting point: 298 to 302 °C (dec.)
SMILES: Br.Oc1ccc2c(c1O)Oc1cccc3c1C2CNC3 (centres unmarked)

SMILES: Cc1ccc2c(c1)CN[C@H]1CCc3cc(O)c(O)cc3[C@H]21 (relative stereo) [Compound 6c, Trans-3-methyl-10,11-dihydroxy-5,6,6a,7,8, 12b-hexahydrobenzo[α]phenanthridine hydrochloride]
- D1 potency and efficacy relative to dihydrexidine (D1 receptors [12]): comparable to dihydrexidine
- D1:D2 Selectivity (D1 receptors [12]): 6
- D2 potency relative to dihydrexidine (D2 receptors [15]): greater D2 potency

SMILES: CCN1CCCC1CNC(=O)c1cc(S(N)(=O)=O)ccc1OC (centres unmarked) [sulpiride]
- blockade of the dopamine effect on alveolar fluid resorption [2]: not

SMILES: Cc1ccc2c(c1)[C@H]1c3cc(O)c(O)cc3CC[C@@H]1NC2 (relative stereo) (as salt: hydrochloride) [Compound 6b, Trans-2-methyl-10,11-dihydroxy-5,6,6a,7,8,12b-hexahydrobenzo [α]phenanthridine hydrochloride]
- melting point: 190 °C (dec.)
